Data published in ChEMBL document CHEMBL1201862, “PubChem BioAssay data set” (2004).
Active and inactive are the calls of the source.

What was measured:
[1] = biological target: Sphingosine 1-phosphate receptor 1 (Homo sapiens, UniProt P21453); test: Late stage counterscreen assay for S1P4 antagonists: Fluorescence dose response cell-based screening assay for antagonists of the Sphingosine 1-Phosphate Receptor 1 (S1P1). [Related pubchem assays (depositor defined):AID1510, AID1524, AID1692, AID1853, AID2332, AID489009, AID489017]; type: functional
[2] = biological target: T1, Sphingosine 1-phosphate receptor 4 (Homo sapiens, UniProt O95977); test: potency of S1P4 blockers – cell-based, fluorescence, synthesized analogues, late-stage follow-up (AID 2346); type: functional
T1 sequence (O95977 whole entry): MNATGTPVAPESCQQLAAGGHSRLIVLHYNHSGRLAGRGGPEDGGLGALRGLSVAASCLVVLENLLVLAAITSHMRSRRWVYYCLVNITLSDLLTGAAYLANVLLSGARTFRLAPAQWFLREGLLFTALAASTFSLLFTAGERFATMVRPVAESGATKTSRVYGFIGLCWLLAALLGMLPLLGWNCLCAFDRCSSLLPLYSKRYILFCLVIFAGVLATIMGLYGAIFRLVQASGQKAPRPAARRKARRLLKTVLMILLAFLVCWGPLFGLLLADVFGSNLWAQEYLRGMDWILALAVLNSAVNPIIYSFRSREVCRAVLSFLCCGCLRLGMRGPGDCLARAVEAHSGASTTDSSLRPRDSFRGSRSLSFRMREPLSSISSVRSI

[3] = biological target: Sphingosine 1-phosphate receptor 3 (Homo sapiens, UniProt Q99500); test: Late stage counterscreen assay for S1P4 antagonists: Fluorescence dose response cell-based screening assay for antagonists of the Sphingosine 1-Phosphate Receptor 3 (S1P3). [Related pubchem assays (depositor defined):AID1510, AID1524, AID1692, AID1853, AID2332, AID489009, AID489017]; type: functional
[4] = biological target: Sphingosine 1-phosphate receptor 5 (Homo sapiens, UniProt Q9H228); test: Late stage counterscreen assay for S1P4 antagonists: Fluorescence dose response cell-based screening assay for antagonists of the Sphingosine 1-Phosphate Receptor 5 (S1P5). [Related pubchem assays (depositor defined):AID1510, AID1524, AID1692, AID1853, AID2332, AID489009, AID489017]; type: functional
[5] = biological target: Sphingosine 1-phosphate receptor 2 (Homo sapiens, UniProt O95136); test: Late stage counterscreen assay for S1P4 antagonists: Fluorescence dose response cell-based screening assay for antagonists of the Sphingosine 1-Phosphate Receptor 2 (S1P2). [Related pubchem assays (depositor defined):AID1510, AID1524, AID1692, AID1853, AID2332, AID489009, AID489017]; type: functional
[6] = biological target: Type-1 angiotensin II receptor (Homo sapiens, UniProt P30556); test: agonist activity at AGTR1 – cell-based, uHTS hits, selectivity assay for APJ receptor agonist project, dose response (AID 488865); type: functional;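 further: beta-arrestin recruitment to AT1 measured by enzyme fragment complementation luminescence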
Coagulation factor XII = biological target: T2, Coagulation factor XII (Homo sapiens, UniProt P00748); type: functional;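 further: activated factor XIIa alpha cleaving a fluorogenic AMC peptide substrate; inhibitor potency from loss of enzyme activity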
T2 sequence (P00748 whole entry): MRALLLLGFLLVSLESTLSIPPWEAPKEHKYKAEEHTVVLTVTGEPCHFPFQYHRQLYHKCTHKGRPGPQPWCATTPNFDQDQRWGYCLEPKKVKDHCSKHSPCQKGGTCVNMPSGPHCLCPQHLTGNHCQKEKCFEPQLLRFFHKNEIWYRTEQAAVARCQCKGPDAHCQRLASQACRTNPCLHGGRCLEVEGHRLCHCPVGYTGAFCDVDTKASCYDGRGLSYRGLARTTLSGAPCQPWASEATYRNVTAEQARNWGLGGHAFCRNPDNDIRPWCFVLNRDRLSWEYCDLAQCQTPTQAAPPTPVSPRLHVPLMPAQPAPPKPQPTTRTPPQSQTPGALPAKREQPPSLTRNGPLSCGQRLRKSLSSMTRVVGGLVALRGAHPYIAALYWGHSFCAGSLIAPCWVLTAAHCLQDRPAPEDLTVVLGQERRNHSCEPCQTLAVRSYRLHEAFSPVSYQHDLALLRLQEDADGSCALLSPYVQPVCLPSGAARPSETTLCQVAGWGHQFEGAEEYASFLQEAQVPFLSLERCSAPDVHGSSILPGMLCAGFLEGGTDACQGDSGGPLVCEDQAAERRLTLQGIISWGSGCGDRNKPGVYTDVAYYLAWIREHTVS

Streptococcus = test: GAS UMAA2166 growth inhibition – luminescence, BacTiterGlo, counter-screen for streptokinase expression inhibitor project, dose response (AID 1915); type: functional, organism-based;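 further: potency for reduction of bacterial viability or growth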
Streptokinase A = biological target: T3, Streptokinase A (Streptococcus pyogenes serotype M1, UniProt P10520); test: viability-normalized secreted streptokinase activity reduction – plasminogen activation absorbance, OD405, dose response (AID 1914); type: functional, Streptococcus pyogenes M1 GAS;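 further: secreted streptokinase activity via plasminogen activation per viability signal from cell pellet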
T3 sequence (P10520 whole entry): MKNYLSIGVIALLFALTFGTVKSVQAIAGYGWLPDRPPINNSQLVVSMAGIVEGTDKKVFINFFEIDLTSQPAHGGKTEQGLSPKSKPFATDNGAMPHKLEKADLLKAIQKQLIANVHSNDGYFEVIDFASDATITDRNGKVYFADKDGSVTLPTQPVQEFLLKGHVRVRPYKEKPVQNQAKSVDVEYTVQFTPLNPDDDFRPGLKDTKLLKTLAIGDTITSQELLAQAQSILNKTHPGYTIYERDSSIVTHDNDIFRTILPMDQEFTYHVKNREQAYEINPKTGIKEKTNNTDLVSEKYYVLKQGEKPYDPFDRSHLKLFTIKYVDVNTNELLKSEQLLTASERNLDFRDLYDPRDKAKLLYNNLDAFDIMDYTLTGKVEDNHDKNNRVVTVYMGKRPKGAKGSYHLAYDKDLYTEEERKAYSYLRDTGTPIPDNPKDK

[7] = biological target: Intestinal-type alkaline phosphatase (Mus musculus, UniProt P24822); test: PubChem AID 488785; type: functional
[8] = biological target: T4, Alkaline phosphatase, tissue-nonspecific isozyme (Homo sapiens, UniProt P05186); test: TNAP enzyme inhibition by screening hits, dose response, selectivity assay for mouse IAP inhibitor project, biochemical, human TNAP, uHTS hits (AID 488906); type: functional
T4 sequence (P05186 whole entry): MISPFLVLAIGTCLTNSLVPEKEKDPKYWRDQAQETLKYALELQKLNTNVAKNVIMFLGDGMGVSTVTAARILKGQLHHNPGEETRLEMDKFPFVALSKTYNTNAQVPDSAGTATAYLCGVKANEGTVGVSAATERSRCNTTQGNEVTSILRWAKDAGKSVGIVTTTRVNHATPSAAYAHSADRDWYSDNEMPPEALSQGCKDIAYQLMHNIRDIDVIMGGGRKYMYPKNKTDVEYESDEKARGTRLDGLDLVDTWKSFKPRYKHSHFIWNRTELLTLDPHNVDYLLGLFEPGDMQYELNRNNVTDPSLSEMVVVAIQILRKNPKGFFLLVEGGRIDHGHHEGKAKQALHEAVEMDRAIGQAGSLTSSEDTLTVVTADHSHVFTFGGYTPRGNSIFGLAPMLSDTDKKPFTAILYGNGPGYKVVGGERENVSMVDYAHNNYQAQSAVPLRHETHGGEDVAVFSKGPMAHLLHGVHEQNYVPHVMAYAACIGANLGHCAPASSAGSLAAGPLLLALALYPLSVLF

[9] = biological target: Intestinal-type alkaline phosphatase (Homo sapiens, UniProt P09923); test: inhibition of human intestinal alkaline phosphatase – biochemical, dose response (AID 488876); type: functional
[10] = test system: Streptococcus sp. 'group A'; test: Streptococcus pyogenes SK(-)GAS viability under kanamycin – luminescence, BacTiterGlo, confirmation, counter-screen for streptokinase expression inhibitor project, dose response (AID 1900); type: functional, organism-based
[11] = biological target: Scavenger receptor class B member 1 (Mus musculus, UniProt Q61009); test: mouse SR-BI DiI-HDL uptake blockers – ldlA[mSR-BI] cells, fluorescence, cherry pick, dose response (AID 493194); type: functional, cell-based;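 further: cellular uptake of fluorescent DiI-labeled HDL measured as cell fluorescence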
[12] = biological target: T5, Histone-lysine N-methyltransferase NSD2 (Homo sapiens, UniProt O96028); type: biochemical
T5 sequence (O96028 whole entry): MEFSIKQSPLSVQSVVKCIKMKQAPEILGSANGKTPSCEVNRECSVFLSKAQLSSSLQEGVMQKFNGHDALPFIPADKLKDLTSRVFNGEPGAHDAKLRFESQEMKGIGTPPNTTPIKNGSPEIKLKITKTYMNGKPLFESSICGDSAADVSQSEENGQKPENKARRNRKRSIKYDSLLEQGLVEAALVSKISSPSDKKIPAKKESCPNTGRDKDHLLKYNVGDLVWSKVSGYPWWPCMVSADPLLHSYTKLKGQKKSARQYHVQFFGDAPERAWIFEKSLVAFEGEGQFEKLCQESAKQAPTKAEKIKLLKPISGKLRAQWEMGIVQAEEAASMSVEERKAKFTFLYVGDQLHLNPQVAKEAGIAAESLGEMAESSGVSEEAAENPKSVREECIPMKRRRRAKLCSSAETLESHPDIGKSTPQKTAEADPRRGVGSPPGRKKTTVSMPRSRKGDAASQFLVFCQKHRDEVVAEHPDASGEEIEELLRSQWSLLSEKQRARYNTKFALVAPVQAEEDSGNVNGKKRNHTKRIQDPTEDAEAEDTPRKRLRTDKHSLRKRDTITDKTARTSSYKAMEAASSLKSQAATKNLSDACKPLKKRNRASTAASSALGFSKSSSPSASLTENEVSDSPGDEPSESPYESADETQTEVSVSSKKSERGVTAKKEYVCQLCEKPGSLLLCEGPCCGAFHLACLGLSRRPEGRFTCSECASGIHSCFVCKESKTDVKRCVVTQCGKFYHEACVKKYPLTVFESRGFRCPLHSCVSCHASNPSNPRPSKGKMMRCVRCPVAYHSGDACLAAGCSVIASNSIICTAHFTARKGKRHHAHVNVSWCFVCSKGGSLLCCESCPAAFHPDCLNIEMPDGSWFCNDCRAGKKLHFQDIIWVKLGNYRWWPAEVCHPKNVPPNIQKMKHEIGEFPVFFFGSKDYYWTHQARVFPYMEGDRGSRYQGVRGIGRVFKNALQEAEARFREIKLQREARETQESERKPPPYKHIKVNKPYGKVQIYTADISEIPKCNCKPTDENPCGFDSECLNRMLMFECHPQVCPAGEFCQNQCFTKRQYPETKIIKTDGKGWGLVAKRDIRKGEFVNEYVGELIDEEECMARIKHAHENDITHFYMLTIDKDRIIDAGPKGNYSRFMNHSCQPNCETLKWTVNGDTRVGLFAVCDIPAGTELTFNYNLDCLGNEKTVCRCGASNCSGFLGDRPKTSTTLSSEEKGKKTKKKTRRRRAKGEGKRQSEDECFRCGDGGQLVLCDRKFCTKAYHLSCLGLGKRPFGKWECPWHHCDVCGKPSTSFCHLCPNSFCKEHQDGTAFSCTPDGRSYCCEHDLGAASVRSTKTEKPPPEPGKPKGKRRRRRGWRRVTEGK

[13] = Fluorescence-based cell-based high throughput dose response assay for inhibitors of the interaction of nucleotide-binding oligomerization domain containing 2 (NOD2) and the receptor-interacting serine-threonine kinase 2 (RIPK2).; type: functional; conditions: Homo sapiens
Hexokinase-1 = Hexokinase-1 (Homo sapiens, UniProt P19367); test: HK1 enzyme activation by HKDC1 hits – biochemical, selectivity assay for HKDC1 activator project, dose response (AID 504762); type: functional
Hexokinase HKDC1 = Hexokinase HKDC1 (Homo sapiens, UniProt Q2TB90); test: activation of HKDC1 glucose phosphorylation – biochemical, W721R variant, dose response (AID 504730); type: functional
Tumor necrosis factor = Tumor necrosis factor (Homo sapiens, UniProt P01375); test: analog potency on TNFa NF-kB signaling – cell-based, revised, SAR follow-up (AID 2337); type: functional
HEK293 = test: cells; conditions: Homo sapiens;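 further: cells exposed to compound for 14 hours overnight before viability readout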
[14] = biological target: Nucleotide-binding oligomerization domain-containing protein 2 (Homo sapiens, UniProt Q9HC29); test: PubChem AID 2334; type: functional
[15] = biological target: Nucleotide-binding oligomerization domain-containing protein 1 (Homo sapiens, UniProt Q9Y239); test: blockers of NOD1 pathway activity – revised, SAR follow-up (AID 2333); type: functional
[16] = biological target: Potassium voltage-gated channel subfamily KQT member 2 (Rattus norvegicus, UniProt O88943); test: rat KCNQ2 current potentiators – automated patch clamp, KCNQ2-CHO cells, SAR follow-up (AID 493113); type: functional
[17] = biological target: Photoreceptor-specific nuclear receptor (Homo sapiens, UniProt Q9Y5X4); type: functional, cell-based;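 further: CHO-S cells with Gal4-NCOR and VP16-NR2E3 two-hybrid luciferase reporter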
Mucolipin-3 = Mucolipin-3 (Homo sapiens, UniProt Q8TDD5); test: Fluorescence counterscreen assay for […] agonists: dose response cell-based high-throughput screening assay to identify agonists of the transient receptor potential channel ML3 (TRPML3). [Related pubchem assays: 1424, 1448 ]; type: functional
Ion channel NompC = Ion channel NompC (Danio rerio, UniProt Q7T1G6); test: Dose response cell-based high-throughput screening assay for agonists of the transient receptor potential channel N1 (TRPN1). [Related pubchem assays (depositor defined):AID1424, AID1448]; type: functional

Sphingosine 1-phosphate receptor 1, sequence (P21453 whole entry): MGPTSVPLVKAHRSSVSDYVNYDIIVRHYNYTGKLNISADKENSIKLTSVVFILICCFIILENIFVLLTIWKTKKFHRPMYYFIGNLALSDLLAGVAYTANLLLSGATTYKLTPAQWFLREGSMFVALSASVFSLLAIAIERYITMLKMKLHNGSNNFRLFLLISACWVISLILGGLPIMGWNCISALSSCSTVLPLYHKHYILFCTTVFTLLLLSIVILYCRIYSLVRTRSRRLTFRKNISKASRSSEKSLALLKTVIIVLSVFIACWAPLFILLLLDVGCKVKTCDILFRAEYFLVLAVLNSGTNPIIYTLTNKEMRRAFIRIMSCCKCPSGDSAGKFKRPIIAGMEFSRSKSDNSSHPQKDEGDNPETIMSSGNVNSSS
Mucolipin-3, sequence (Q8TDD5 whole entry): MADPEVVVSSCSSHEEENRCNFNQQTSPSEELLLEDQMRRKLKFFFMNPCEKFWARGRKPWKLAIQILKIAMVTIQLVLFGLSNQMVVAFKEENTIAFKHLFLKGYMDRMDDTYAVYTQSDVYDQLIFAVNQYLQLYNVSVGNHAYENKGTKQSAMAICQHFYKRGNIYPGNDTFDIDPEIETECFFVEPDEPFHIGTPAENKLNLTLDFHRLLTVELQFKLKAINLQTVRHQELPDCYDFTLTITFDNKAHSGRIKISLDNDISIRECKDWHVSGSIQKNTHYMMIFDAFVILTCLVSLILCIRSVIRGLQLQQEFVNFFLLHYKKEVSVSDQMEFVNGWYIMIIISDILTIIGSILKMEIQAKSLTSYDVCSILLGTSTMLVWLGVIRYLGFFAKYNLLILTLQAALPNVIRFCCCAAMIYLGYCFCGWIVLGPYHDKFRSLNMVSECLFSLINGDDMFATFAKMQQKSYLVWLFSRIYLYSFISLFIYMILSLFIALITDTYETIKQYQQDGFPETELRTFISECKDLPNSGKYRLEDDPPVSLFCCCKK
Potassium voltage-gated channel subfamily KQT member 2, sequence (O88943 whole entry, the tested form may be a part): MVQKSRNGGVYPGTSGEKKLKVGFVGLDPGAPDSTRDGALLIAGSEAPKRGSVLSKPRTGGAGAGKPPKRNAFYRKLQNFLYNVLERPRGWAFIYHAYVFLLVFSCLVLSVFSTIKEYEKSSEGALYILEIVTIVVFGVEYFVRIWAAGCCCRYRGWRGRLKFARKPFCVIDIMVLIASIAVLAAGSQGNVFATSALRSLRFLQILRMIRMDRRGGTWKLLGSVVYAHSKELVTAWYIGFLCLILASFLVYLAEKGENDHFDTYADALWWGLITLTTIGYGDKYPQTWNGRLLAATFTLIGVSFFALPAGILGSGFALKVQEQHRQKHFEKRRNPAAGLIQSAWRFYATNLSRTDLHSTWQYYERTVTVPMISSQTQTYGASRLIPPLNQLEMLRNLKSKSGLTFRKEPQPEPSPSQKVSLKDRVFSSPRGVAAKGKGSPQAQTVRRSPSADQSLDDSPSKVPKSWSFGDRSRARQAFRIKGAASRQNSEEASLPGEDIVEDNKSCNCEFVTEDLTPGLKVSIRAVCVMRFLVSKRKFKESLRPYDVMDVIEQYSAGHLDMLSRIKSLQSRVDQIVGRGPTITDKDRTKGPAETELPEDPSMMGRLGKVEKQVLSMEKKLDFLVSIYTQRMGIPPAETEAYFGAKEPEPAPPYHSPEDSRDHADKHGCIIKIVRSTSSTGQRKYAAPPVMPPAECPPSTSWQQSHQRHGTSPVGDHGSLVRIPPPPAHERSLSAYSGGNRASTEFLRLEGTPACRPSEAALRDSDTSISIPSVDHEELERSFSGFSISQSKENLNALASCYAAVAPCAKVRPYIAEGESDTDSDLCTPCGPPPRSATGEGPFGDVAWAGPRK
Nucleotide-binding oligomerization domain-containing protein 2, sequence (Q9HC29 whole entry, the tested form may be a part): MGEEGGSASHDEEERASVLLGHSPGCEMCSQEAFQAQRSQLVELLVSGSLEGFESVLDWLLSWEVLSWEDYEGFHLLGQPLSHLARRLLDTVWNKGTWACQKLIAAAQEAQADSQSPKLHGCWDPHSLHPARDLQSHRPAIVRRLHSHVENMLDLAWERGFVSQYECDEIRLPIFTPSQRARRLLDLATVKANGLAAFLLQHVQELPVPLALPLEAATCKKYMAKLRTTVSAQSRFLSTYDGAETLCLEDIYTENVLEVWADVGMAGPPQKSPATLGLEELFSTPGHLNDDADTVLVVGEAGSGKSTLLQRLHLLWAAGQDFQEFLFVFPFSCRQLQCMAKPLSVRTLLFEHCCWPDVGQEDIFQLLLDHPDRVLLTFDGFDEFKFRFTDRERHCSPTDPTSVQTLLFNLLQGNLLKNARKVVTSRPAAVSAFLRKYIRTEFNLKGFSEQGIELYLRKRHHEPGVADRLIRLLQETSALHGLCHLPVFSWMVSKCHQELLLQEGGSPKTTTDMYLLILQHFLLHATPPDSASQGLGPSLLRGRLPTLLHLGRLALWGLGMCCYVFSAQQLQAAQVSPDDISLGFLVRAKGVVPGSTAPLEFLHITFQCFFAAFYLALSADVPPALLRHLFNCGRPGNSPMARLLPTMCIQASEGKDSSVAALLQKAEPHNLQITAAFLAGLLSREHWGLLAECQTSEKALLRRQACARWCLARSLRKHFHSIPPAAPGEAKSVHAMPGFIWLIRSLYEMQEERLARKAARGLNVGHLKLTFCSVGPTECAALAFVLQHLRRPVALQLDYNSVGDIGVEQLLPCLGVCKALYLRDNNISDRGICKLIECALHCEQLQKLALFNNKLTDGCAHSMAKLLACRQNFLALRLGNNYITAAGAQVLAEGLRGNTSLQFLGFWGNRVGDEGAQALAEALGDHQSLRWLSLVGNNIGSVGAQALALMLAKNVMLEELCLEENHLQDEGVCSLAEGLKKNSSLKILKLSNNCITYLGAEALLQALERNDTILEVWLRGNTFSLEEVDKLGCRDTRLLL
Intestinal-type alkaline phosphatase (Mus musculus, UniProt P24822), sequence (P24822 whole entry): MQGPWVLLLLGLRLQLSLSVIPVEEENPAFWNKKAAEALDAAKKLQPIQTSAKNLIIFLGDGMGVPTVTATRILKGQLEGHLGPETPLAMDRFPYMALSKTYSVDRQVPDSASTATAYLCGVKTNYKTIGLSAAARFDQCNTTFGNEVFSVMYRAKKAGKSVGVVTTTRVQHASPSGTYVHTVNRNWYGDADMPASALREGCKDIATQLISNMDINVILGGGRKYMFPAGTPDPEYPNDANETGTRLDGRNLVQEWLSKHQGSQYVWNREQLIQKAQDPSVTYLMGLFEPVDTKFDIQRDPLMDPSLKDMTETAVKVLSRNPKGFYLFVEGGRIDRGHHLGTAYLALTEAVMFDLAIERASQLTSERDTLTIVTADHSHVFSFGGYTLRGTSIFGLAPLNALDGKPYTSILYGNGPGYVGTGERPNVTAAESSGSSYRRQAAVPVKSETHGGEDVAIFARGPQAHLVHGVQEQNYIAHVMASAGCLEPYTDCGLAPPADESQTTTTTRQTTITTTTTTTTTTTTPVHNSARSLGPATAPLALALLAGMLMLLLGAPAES
Sphingosine 1-phosphate receptor 5, sequence (Q9H228 whole entry): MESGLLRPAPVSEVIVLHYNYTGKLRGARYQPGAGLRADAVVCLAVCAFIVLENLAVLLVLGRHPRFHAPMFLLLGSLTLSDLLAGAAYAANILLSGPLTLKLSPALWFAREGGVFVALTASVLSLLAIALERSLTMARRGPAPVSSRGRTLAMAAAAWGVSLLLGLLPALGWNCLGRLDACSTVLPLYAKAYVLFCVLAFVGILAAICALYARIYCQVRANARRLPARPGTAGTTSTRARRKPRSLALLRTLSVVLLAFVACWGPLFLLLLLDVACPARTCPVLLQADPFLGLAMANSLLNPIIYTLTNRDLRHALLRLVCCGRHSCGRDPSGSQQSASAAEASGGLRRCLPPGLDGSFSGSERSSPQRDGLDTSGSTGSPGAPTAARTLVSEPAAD
Nucleotide-binding oligomerization domain-containing protein 1, sequence (Q9Y239 whole entry, the tested form may be a part): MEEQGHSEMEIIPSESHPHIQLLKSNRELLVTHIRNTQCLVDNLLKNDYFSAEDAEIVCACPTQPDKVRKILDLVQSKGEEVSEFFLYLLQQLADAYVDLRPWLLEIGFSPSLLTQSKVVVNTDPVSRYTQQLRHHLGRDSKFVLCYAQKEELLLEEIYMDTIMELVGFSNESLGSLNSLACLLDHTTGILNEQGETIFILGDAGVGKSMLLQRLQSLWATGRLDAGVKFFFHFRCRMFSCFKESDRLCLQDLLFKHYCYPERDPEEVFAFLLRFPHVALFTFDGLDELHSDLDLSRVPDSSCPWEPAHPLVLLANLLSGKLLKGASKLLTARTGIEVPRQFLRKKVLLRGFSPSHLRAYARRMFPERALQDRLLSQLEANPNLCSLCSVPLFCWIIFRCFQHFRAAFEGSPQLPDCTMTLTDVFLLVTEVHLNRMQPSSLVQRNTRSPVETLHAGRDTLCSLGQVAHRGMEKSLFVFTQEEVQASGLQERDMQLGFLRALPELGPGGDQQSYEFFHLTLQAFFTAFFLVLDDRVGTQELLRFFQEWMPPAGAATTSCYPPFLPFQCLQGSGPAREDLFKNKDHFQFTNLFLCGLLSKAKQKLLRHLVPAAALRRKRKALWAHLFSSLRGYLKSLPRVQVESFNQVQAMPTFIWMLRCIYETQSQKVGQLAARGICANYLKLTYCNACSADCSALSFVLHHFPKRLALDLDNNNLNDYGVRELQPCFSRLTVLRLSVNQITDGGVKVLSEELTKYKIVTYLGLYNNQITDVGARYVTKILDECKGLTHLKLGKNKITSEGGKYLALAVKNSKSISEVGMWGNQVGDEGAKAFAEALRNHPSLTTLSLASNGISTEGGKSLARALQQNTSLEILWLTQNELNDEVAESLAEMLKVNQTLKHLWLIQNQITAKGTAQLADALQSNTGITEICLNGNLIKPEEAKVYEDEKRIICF
Tumor necrosis factor, sequence (P01375 whole entry): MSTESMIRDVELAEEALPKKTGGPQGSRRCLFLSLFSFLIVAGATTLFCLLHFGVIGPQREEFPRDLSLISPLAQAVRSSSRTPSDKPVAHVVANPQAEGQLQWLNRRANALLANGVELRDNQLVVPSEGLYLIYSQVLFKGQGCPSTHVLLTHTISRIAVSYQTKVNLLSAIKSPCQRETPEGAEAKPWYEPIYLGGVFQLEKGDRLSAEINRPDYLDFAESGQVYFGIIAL

CCc1cccc(C)c1NC(=O)c1ccc(-c2cc(OC)ccc2OC)o1
IC50 [1]: > 25 µM (inactive) | IC50 [2]: 0.513 µM (active) | IC50 [3]: > 25 µM (inactive) | IC50 [4]: > 25 µM (inactive) | IC50 [5]: > 25 µM (inactive)

CCCc1cc(C(=O)Nc2sc3c(c2C(=O)OCC)CCCC3)no1
EC50 [6]: > 100 µM (inactive)

COC(=O)c1n[nH]c(NC(=O)c2ccccc2Cl)n1
IC50 (Coagulation factor XII): 1.05 µM (active)

Cc1c(Cl)cccc1N=C(S)NCCC(c1ccccc1)c1ccccc1
EC50 (Streptococcus): > 150 µM (not active) | EC50 (Streptokinase A): 3.76 µM (active) | IC50 [7]: 8.34 µM (active) | IC50 [8]: 29 µM (active) | IC50 [9]: 42.4 µM (active) | EC50 [10]: 8.52 µM (active)

CC(=O)OC1C2(CC3N4C(=O)C5(CO)SSC4(CC31O)C(=O)N5C)OC(C)C(C)(C)C2=O (stereo unspecified)
AC50 [11]: 5.61 µM (active) | AC50 [12]: 1.06 µM (active) | IC50 [13]: 3.64 µM (active) | EC50 (Hexokinase-1): > 80 µM (inactive) | EC50 (Hexokinase HKDC1): 0.212 µM (active)

O=C(Nc1nc2ccccc2n1Cc1ccc(Cl)cc1)c1ccc(Cl)cc1
IC50 (Tumor necrosis factor): > 20 µM (inactive) | IC50 (HEK293): > 20 µM (inactive) | IC50 [14]: > 20 µM (inactive) | IC50 [15]: > 20 µM (inactive)

Cc1cc(C)c(NC(=O)C2CCCCC2)c(C)c1
EC50 [16]: 1.57 µM (active)

N#C/C(=N\Nc1ccc(Cl)c(Cl)c1)C(=O)C1CC1
IC50 [17]: 1.29 µM (active) | EC50 (Mucolipin-3): > 29.9 µM (not active) | EC50 (Ion channel NompC): > 9.97 µM (inactive)
